Source: a compilation of properties of binary mixtures (doi:10.1016/j.fluid.2019.112447)

Assay: xn = mol fraction of the nth substance listed
Details: 101 kPa

CCC(C)O (centres undefined) + CCOS(=O)(=O)[O-].CC[n+]1ccn(C)c1
viscosity (298.15 K, x2 = 0): 2.58 mPa·s | viscosity (303.15 K, x2 = 0): 2.27 mPa·s | viscosity (313.15 K, x2 = 0): 1.77 mPa·s | viscosity (318.15 K, x2 = 0): 1.58 mPa·s | viscosity (323.15 K, x2 = 0): 1.41 mPa·s

CCOS(=O)(=O)[O-].CC[n+]1ccn(C)c1 + CCC(C)O
viscosity (298.15 K, x1 = 0.1032): 4.62 mPa·s | viscosity (298.15 K, x1 = 0.2937): 9.73 mPa·s | viscosity (298.15 K, x1 = 0.3936): 14.02 mPa·s | viscosity (298.15 K, x1 = 0.4906): 19.79 mPa·s | viscosity (298.15 K, x1 = 0.5916): 28.15 mPa·s | viscosity (298.15 K, x1 = 0.8916): 71.7 mPa·s | viscosity (298.15 K, x1 = 1): 96.2 mPa·s | viscosity (303.15 K, x1 = 0.1032): 4.29 mPa·s | viscosity (303.15 K, x1 = 0.2937): 9.16 mPa·s | viscosity (303.15 K, x1 = 0.3936): 12.67 mPa·s | viscosity (303.15 K, x1 = 0.5916): 24 mPa·s | viscosity (303.15 K, x1 = 0.6944): 33 mPa·s | viscosity (303.15 K, x1 = 0.7957): 44 mPa·s | viscosity (303.15 K, x1 = 1): 75.9 mPa·s | viscosity (308.15 K, x1 = 0.1032): 3.46 mPa·s | viscosity (308.15 K, x1 = 0.2027): 5.31 mPa·s | viscosity (308.15 K, x1 = 0.2937): 7.53 mPa·s | viscosity (308.15 K, x1 = 0.4906): 14.29 mPa·s | viscosity (308.15 K, x1 = 0.5916): 20.49 mPa·s | viscosity (308.15 K, x1 = 0.6944): 27.81 mPa·s | viscosity (308.15 K, x1 = 0.7957): 36.7 mPa·s | viscosity (308.15 K, x1 = 1): 60.7 mPa·s | viscosity (313.15 K, x1 = 0.1032): 2.94 mPa·s | viscosity (313.15 K, x1 = 0.2937): 6.51 mPa·s | viscosity (313.15 K, x1 = 0.4906): 13.06 mPa·s | viscosity (313.15 K, x1 = 0.6944): 23.65 mPa·s | viscosity (313.15 K, x1 = 0.7957): 30.7 mPa·s | viscosity (313.15 K, x1 = 0.8916): 38.7 mPa·s | viscosity (318.15 K, x1 = 0.1032): 2.56 mPa·s | viscosity (318.15 K, x1 = 0.2937): 5.76 mPa·s | viscosity (318.15 K, x1 = 0.3936): 8.37 mPa·s | viscosity (318.15 K, x1 = 0.4906): 11.43 mPa·s | viscosity (318.15 K, x1 = 0.5916): 15.38 mPa·s | viscosity (318.15 K, x1 = 0.6944): 20.32 mPa·s | viscosity (318.15 K, x1 = 0.7957): 26.1 mPa·s | viscosity (318.15 K, x1 = 0.8916): 32.5 mPa·s | viscosity (318.15 K, x1 = 1): 40.9 mPa·s | viscosity (323.15 K, x1 = 0.1032): 2.03 mPa·s | viscosity (323.15 K, x1 = 0.2027): 3.36 mPa·s | viscosity (323.15 K, x1 = 0.3936): 7.36 mPa·s | viscosity (323.15 K, x1 = 0.4906): 10.09 mPa·s | viscosity (323.15 K, x1 = 0.5916): 13.57 mPa·s | viscosity (323.15 K, x1 = 0.6944): 17.64 mPa·s | viscosity (323.15 K, x1 = 0.7957): 22.35 mPa·s | viscosity (323.15 K, x1 = 0.8916): 27.4 mPa·s | viscosity (323.15 K, x1 = 1): 33.8 mPa·s

CCC(C)O (centres undefined) + CC[n+]1ccn(C)c1.O=S(=O)([O-])C(F)(F)F
viscosity (298.15 K, x2 = 0): 2.58 mPa·s | viscosity (303.15 K, x2 = 0): 2.27 mPa·s | viscosity (313.15 K, x2 = 0): 1.77 mPa·s | viscosity (318.15 K, x2 = 0): 1.58 mPa·s | viscosity (323.15 K, x2 = 0): 1.41 mPa·s

CC[n+]1ccn(C)c1.O=S(=O)([O-])C(F)(F)F + CCC(C)O
viscosity (298.15 K, x1 = 0.1092): 3.95 mPa·s | viscosity (298.15 K, x1 = 0.1945): 5.32 mPa·s | viscosity (298.15 K, x1 = 0.2945): 6.57 mPa·s | viscosity (298.15 K, x1 = 0.3938): 7.9 mPa·s | viscosity (298.15 K, x1 = 0.4988): 10.59 mPa·s | viscosity (298.15 K, x1 = 0.5952): 15.33 mPa·s | viscosity (298.15 K, x1 = 0.6907): 22.63 mPa·s | viscosity (298.15 K, x1 = 0.903): 39.43 mPa·s | viscosity (303.15 K, x1 = 0.1092): 3.47 mPa·s | viscosity (303.15 K, x1 = 0.1945): 4.65 mPa·s | viscosity (303.15 K, x1 = 0.2945): 5.76 mPa·s | viscosity (303.15 K, x1 = 0.6907): 19.37 mPa·s | viscosity (303.15 K, x1 = 0.903): 33.21 mPa·s | viscosity (303.15 K, x1 = 1): 38.31 mPa·s | viscosity (308.15 K, x1 = 0.1092): 3.09 mPa·s | viscosity (308.15 K, x1 = 0.1945): 4.1 mPa·s | viscosity (308.15 K, x1 = 0.2945): 5.07 mPa·s | viscosity (308.15 K, x1 = 0.4988): 8.23 mPa·s | viscosity (308.15 K, x1 = 0.5952): 11.65 mPa·s | viscosity (308.15 K, x1 = 0.6907): 16.75 mPa·s | viscosity (308.15 K, x1 = 0.7986): 22.22 mPa·s | viscosity (308.15 K, x1 = 1): 32.28 mPa·s | viscosity (313.15 K, x1 = 0.1092): 2.75 mPa·s | viscosity (313.15 K, x1 = 0.2945): 4.51 mPa·s | viscosity (313.15 K, x1 = 0.3938): 5.5 mPa·s | viscosity (313.15 K, x1 = 0.7986): 19.09 mPa·s | viscosity (313.15 K, x1 = 0.903): 24.05 mPa·s | viscosity (318.15 K, x1 = 0.1092): 2.46 mPa·s | viscosity (318.15 K, x1 = 0.1945): 3.24 mPa·s | viscosity (318.15 K, x1 = 0.2945): 4.03 mPa·s | viscosity (318.15 K, x1 = 0.3938): 4.94 mPa·s | viscosity (318.15 K, x1 = 0.5952): 9.13 mPa·s | viscosity (318.15 K, x1 = 0.6907): 12.84 mPa·s | viscosity (318.15 K, x1 = 0.7986): 16.7 mPa·s | viscosity (318.15 K, x1 = 1): 23.86 mPa·s | viscosity (323.15 K, x1 = 0.1092): 2.21 mPa·s | viscosity (323.15 K, x1 = 0.1945): 2.9 mPa·s | viscosity (323.15 K, x1 = 0.2945): 3.61 mPa·s | viscosity (323.15 K, x1 = 0.3938): 4.44 mPa·s | viscosity (323.15 K, x1 = 0.4988): 5.91 mPa·s | viscosity (323.15 K, x1 = 0.5952): 8.17 mPa·s | viscosity (323.15 K, x1 = 0.7986): 14.66 mPa·s | viscosity (323.15 K, x1 = 1): 20.75 mPa·s
